{"source": "ChEMBL document CHEMBL5230123", "about": "“A comprehensive review of monoamine oxidase inhibitors as Anti-Alzheimer's disease agents: A review” (Eur J Med Chem, 2020)", "key": {"[1]": {"target": "T1, Amine oxidase [flavin-containing] A (Homo sapiens, UniProt P21397)", "T1 sequence (P21397 whole entry)": "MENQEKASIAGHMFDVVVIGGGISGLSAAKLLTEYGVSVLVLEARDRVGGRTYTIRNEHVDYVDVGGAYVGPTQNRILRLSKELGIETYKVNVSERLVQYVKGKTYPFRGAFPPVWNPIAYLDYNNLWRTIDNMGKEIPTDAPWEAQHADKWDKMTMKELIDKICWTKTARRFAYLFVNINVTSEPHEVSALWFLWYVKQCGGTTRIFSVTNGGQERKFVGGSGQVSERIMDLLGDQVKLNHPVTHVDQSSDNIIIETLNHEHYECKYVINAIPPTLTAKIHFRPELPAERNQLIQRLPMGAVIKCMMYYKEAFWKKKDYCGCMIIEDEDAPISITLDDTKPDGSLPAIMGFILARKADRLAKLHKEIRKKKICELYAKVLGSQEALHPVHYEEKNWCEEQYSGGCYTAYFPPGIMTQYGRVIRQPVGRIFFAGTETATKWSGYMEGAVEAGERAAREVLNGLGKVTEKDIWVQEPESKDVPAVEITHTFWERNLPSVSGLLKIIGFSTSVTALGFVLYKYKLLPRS", "assay": "Inhibition of recombinant human MAO-A using kynuramine as substrate incubated for 10 mins followed by substrate addition and measured for 20 mins by Fluorescence microplate reader assay"}, "[2]": {"target": "T2, Amine oxidase [flavin-containing] B (Homo sapiens, UniProt P27338)", "T2 sequence (P27338 whole entry)": "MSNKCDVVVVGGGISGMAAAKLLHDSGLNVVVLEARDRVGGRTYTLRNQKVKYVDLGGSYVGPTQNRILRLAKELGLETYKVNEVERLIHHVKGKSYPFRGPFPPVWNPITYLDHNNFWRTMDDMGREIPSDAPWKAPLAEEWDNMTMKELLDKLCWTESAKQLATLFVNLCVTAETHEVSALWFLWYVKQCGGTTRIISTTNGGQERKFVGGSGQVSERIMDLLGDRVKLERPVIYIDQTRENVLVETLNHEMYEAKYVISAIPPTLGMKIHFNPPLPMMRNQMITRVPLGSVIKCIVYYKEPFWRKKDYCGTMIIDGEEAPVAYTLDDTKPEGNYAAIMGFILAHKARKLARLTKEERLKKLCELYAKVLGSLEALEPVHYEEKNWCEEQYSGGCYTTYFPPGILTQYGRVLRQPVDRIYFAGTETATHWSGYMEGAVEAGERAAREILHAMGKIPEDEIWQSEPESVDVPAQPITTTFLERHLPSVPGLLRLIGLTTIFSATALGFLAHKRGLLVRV", "assay": "Inhibition of recombinant human MAO-B using p-tyramine as substrate preincubated for 15 mins followed by substrate addition and measured after 20 mins by fluorescence assay"}, "Acetylcholinesterase [3]": {"target": "Acetylcholinesterase (Homo sapiens, UniProt P22303)", "sequence (P22303 whole entry)": "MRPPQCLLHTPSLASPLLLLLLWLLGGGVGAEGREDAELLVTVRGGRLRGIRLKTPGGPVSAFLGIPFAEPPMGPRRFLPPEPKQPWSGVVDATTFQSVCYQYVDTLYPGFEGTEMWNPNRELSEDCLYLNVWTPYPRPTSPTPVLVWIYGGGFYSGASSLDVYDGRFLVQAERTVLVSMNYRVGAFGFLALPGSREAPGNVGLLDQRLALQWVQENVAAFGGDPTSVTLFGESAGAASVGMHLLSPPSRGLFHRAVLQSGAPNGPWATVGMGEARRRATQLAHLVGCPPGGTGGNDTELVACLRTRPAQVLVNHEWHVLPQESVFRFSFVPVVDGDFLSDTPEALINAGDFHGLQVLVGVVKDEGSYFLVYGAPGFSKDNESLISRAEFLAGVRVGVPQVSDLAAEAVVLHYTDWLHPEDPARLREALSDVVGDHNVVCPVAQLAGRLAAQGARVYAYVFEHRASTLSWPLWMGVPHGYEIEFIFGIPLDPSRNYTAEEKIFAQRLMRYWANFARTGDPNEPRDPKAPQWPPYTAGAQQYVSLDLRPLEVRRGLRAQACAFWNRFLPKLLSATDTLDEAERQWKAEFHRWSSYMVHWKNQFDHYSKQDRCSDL", "assay": "Inhibition of human AChE using acetylcholine as substrate incubated for 5 mins followed by substrate addition by Ellman's method"}, "[4]": {"target": "T3, Amine oxidase [flavin-containing] B (Rattus norvegicus, UniProt P19643)", "T3 sequence (P19643 whole entry)": "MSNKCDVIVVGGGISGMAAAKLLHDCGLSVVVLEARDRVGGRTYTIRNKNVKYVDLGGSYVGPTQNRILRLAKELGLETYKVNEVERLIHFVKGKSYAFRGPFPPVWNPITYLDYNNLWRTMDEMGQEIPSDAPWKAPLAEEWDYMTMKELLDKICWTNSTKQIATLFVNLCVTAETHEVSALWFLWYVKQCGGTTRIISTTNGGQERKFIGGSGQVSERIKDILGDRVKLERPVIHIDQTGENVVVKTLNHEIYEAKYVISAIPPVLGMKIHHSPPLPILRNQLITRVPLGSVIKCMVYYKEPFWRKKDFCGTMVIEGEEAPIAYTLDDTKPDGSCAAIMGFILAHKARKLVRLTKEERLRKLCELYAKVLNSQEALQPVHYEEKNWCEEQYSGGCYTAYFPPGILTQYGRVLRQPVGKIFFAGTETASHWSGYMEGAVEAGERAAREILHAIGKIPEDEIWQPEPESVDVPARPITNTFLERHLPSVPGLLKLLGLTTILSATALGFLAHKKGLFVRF", "assay": "Inhibition of rat brain mitochondria MAO-B using p-tyramine as substrate incubated for 15 mins followed by substrate addition and measured for 15 by microplate fluorescence reader analysis"}, "[5]": {"target": "T2, Amine oxidase [flavin-containing] B", "assay": "Inhibition of MAO-B (unknown origin) using tyramine hydrochloride as substrate incubated for 30 mins followed by substrate addition and measured after 5 mins by spectrophotometric assay"}, "[6]": {"target": "T2, Amine oxidase [flavin-containing] B", "assay": "Inhibition of MAO-B (unknown origin) using kynuramine as substrate preincubated for 10 mins followed by substrate addition and measured after 20 mins by fluorescence microplate reader assay"}, "[7]": {"target": "T2, Amine oxidase [flavin-containing] B", "assay": "Inhibition of recombinant human MAO-B using kynuramine as substrate incubated for 20 mins by fluorescence spectrophotometric assay"}, "[8]": {"target": "T2, Amine oxidase [flavin-containing] B", "assay": "Competitive inhibition of recombinant human MAO-B using kynuramine as substrate incubated for 20 mins by Lineweaver-Burk plot analysis"}, "[9]": {"target": "T1, Amine oxidase [flavin-containing] A", "assay": "Inhibition of recombinant human MAO-A using kynuramine as substrate incubated for 20 mins by fluorescence spectrophotometric assay"}, "[10]": {"target": "T2, Amine oxidase [flavin-containing] B", "assay": "Inhibition of MAO-B (unknown origin) using as tyramine as substrate by Ampliflu red reagent based fluorometric method"}, "[11]": {"target": "T2, Amine oxidase [flavin-containing] B", "assay": "Inhibition of human MAO-B"}, "[12]": {"assay": "Oral bioavailability in ICR mouse at 10 mg/kg and measured after 24 hrs by HPLC analysis", "assay_type": "ADME, organism-based", "settings": "in vivo"}, "Acetylcholinesterase [13]": {"target": "T4, Acetylcholinesterase (Mus musculus, UniProt P21836)", "T4 sequence (P21836 whole entry)": "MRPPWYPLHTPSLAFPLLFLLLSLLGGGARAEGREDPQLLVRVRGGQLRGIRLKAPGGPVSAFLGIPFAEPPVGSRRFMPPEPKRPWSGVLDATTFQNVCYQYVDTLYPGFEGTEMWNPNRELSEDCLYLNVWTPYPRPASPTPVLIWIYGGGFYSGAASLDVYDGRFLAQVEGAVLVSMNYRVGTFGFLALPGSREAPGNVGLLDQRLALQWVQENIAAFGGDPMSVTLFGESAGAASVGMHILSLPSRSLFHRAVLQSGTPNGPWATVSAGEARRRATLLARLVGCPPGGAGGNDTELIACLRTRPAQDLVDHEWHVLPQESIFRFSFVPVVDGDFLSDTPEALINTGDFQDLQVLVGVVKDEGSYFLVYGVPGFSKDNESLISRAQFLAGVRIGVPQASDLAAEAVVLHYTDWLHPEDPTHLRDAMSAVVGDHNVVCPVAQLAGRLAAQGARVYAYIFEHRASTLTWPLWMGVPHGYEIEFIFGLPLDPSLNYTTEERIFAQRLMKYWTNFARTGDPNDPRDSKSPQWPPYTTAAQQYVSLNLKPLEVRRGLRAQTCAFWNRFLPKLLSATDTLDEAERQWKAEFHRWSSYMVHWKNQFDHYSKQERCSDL", "assay": "Inhibition of mouse AChE using acetylthiocholine iodide as substrate incubated for 20 mins by DTNB reagent based Ellman's method"}, "[14]": {"target": "T2, Amine oxidase [flavin-containing] B", "assay": "Inhibition of human MAO-B using benzylamine as substrate preincubated for 15 mins followed by substrate addition and measured after 15 mins by fluorescence assay"}, "[15]": {"target": "T3, Amine oxidase [flavin-containing] B", "assay": "Inhibition of rat brain mitochondria MAO-B using benzylamine as substrate incubated for 30 mins by microplate reader assay"}, "[16]": {"target": "T1, Amine oxidase [flavin-containing] A", "assay": "Inhibition of recombinant human MAO-A using p-tyramine as substrate incubated for 10 mins followed by substrate addition and measured 20 mins by fluorescence assay"}, "Homo sapiens": {"species": "Homo sapiens", "assay": "Selectivity index, ratio of IC50 for inhibition of recombinant human MAO-B to IC50 for inhibition of recombinant human MAO-A"}, "[17]": {"target": "T2, Amine oxidase [flavin-containing] B", "assay": "Inhibition of recombinant human MAO-B using p-tyramine as substrate incubated for 10 mins followed by substrate addition and measured 20 mins by fluorescence assay"}}, "data": [{"compound": "O=c1c(O)c(-c2cc(O)c(O)c(O)c2)oc2cc(O)cc(O)c12", "note": "[MYRICETIN]", "values": [{"measurement": "IC50", "setting": "[1]", "value": 9.93, "unit": "µM"}]}, {"compound": "O=c1c(O)c(-c2ccc(O)c(O)c2)oc2cc(O)cc(O)c12", "note": "[QUERCETIN]", "values": [{"measurement": "IC50", "setting": "[1]", "value": 1.52, "unit": "µM"}]}, {"compound": "Cc1c(C)c2c(c(C)c1O)CCC(C)(C(=O)NCCC1CCN(Cc3ccccc3F)CC1)O2", "note": "(centres undefined)", "values": [{"measurement": "IC50", "setting": "[2]", "value": 4.3, "unit": "µM"}, {"measurement": "IC50", "setting": "Acetylcholinesterase [3]", "value": 0.54, "unit": "µM"}]}, {"compound": "C/C(=N\\NC(=O)C1CC(c2ccccc2)=NO1)c1ccc(C)cc1", "note": "(centres undefined)", "values": [{"measurement": "IC50", "setting": "[4]", "value": 0.0051, "unit": "µM"}]}, {"compound": "COc1ccc(/C(C)=N/NC(=O)C2CC(c3ccccc3)=NO2)cc1OC", "note": "(centres undefined)", "values": [{"measurement": "IC50", "setting": "[4]", "value": 0.0059, "unit": "µM"}]}, {"compound": "CN1CCN(c2ccc(/C=N/Nc3ccccc3)cc2)CC1", "values": [{"measurement": "IC50", "setting": "[5]", "value": 0.028, "unit": "µM"}]}, {"compound": "CCOc1ccc([N+](=O)[O-])c(N/N=C/c2ccco2)n1", "values": [{"measurement": "IC50", "setting": "[6]", "value": 10.6, "unit": "µM"}]}, {"compound": "O=C1Oc2ccccc2C(=O)/C1=C/NCc1ccccc1", "values": [{"measurement": "IC50", "setting": "[7]", "value": 0.638, "unit": "µM"}, {"measurement": "Ki", "setting": "[8]", "value": 94, "unit": "µM"}, {"measurement": "IC50", "setting": "[9]", "value": 77.9, "unit": "µM"}]}, {"compound": "Cc1c(/N=C/c2ccc(O)cc2)c(=O)n(-c2ccccc2)n1C", "values": [{"measurement": "IC50", "setting": "[10]", "value": 0.114, "unit": "µM"}]}, {"compound": "O=C1CCC2(O)c3c(ccc(O)c31)-c1ccc(O)c3c1C2C1OC1C3=O", "note": "(centres undefined)", "values": [{"measurement": "IC50", "setting": "[11]", "value": "> 80", "unit": "µM"}]}, {"compound": "Cc1c(/N=C/c2cccc([N+](=O)[O-])c2)c(=O)n(-c2ccccc2)n1C", "values": [{"measurement": "IC50", "setting": "[10]", "value": 0.054, "unit": "µM"}]}, {"compound": "COc1cc(-c2cc(=O)c3c(O)cc(O)cc3o2)cc(OC)c1O", "note": "[TRICIN]", "values": [{"measurement": "IC50", "setting": "[1]", "value": 0.25, "unit": "µM"}]}, {"compound": "C#CCNCc1ccc2c(c1)ncn2-c1cc(NC(=S)NCC)ncn1", "values": [{"measurement": "bioavailability", "setting": "[12]", "value": 45.5, "unit": "%"}, {"measurement": "IC50", "setting": "Acetylcholinesterase [13]", "value": 0.032, "unit": "µM"}, {"measurement": "IC50", "setting": "[14]", "value": 2.12, "unit": "µM"}]}, {"compound": "CCOc1ccc([N+](=O)[O-])c(N/N=C/c2ccc(C(F)(F)F)cc2)n1", "values": [{"measurement": "IC50", "setting": "[1]", "value": 13.1, "unit": "µM"}]}, {"compound": "CCOc1ccc([N+](=O)[O-])c(N/N=C/c2cccn2C)n1", "values": [{"measurement": "IC50", "setting": "[1]", "value": 6.12, "unit": "µM"}]}, {"compound": "O=C1Nc2ccc(Cl)cc2/C1=N\\NC(=O)c1ccc2c(c1)OCO2", "values": [{"measurement": "IC50", "setting": "[15]", "value": 0.034, "unit": "µM"}]}, {"compound": "CN(C)c1ccc(/C=C/C(=O)c2cc(Cl)sc2Cl)cc1", "values": [{"measurement": "IC50", "setting": "[16]", "value": 1.99, "unit": "µM"}, {"measurement": "Ratio IC50", "setting": "Homo sapiens", "value": 0.02}, {"measurement": "IC50", "setting": "[17]", "value": 0.04, "unit": "µM"}]}]}
